IC50 data for 8 molecules are collected here from patent US20110144160A1, “Antagonists of Prostaglandin D2 Receptors” (Amira Pharmaceuticals, Inc., priority 2008, published 2011).

SMILES strings stand for the structures.

One assay deals with T1, human DP1 receptor (Homo sapiens, UniProt Q13258).
T1 construct: tissue Biological Specialty Corporation; host or cells: human platelets, membrane preparation
T1 sequence (Q13258 1-359): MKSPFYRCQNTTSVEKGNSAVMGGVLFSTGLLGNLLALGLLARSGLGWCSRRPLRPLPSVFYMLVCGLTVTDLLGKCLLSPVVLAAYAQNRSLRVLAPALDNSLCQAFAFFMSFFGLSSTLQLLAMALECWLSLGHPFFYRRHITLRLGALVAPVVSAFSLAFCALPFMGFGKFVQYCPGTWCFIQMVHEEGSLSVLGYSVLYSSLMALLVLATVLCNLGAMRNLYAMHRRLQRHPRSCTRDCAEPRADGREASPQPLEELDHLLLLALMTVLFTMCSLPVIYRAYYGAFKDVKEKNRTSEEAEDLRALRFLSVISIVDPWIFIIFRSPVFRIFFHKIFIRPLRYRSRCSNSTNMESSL
The assay is described as follows: DP1 binding assay ([3H]BWA868C radioligand). The following applies: human platelet membranes, 2 nM [3H]BWA868C; read-out: hDP1. The protocol: The ability of a compound to bind to the human DP1 receptor was evaluated via a radioligand membrane binding assay using the DP1 selective synthetic ligand [^3H]BWA868C. Packed human platelets (Biological Specialty Corporation), were resuspended in 6 volumes of Hepes/HBSS buffer (10 mM Hepes, 1 mM DTT in Hanks Balanced Salt Solution (HBSS), lysed and centrifuged at 75,000×g to pellet the membranes. Membranes were resuspended in Hepes/HBSS buffer to approximately 12 mg protein/ml. Membranes (20 μg protein/well) are incubated in 96-well plates with 2 nM [^3H]BWA868C and test compound in Assay Buffer (50 mM Hepes, 10 mM MnCl2, 1 mM EDTA, plus or minus 0.2% human serum albumin, pH 7.4) for 60 minutes at room temperature. The reactions are terminated by rapid filtration through Whatman GF/C glass fibre filter plates. The filter plates were pre-soaked in 0.33% polethylenimine for 30 minutes at room temperature then washed in Wash Buffer (50 mM Hepes, 0.5 M NaCl pH 7.4) prior to harvesting. After harvesting, the filter plates are washed 3 times with 1 ml cold Wash Buffer then dried. Scintillant is then added to the plates and the radioactivity retained on the filters is determined on a Packard TopCount (Perkin Elmer). Specific binding is determined as total radioactive binding minus non-specific binding in the presence of 10 μM BW A868C. IC50s were determined using GraphPad prism analysis of drug titration curves.

In the next assay the target is T2, human DP2 receptor (Homo sapiens, UniProt Q9Y5Y4).
T2 construct: expressed in transfected cells
T2 sequence (Q9Y5Y4 1-395): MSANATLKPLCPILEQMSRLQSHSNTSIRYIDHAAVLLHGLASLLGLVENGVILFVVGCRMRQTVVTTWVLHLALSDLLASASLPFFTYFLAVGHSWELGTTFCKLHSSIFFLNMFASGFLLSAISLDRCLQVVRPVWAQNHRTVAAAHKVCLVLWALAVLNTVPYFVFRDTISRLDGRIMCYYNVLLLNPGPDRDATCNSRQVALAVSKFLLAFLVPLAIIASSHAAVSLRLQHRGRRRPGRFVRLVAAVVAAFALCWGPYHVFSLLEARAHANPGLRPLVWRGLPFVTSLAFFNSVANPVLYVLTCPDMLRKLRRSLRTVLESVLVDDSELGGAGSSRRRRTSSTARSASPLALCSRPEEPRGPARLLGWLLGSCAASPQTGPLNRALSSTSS
The assay is described as follows: DP2/CRTH2 binding assay ([3H]PGD2 radioligand). The following applies: membranes of HEK293 cells expressing recombinant human DP2, 1 nM [3H]PGD2; read-out: hDP2. A digest of the protocol:
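HEK293 membranes with stable recombinant human DP2, incubated with 1 nM [3H]PGD2 and compound 60 min at room temperature in pH 7.4 HEPES/MnCl2/EDTA buffer, with or without 0.2% human serum albumin.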

For the molecule `COc1ccc(CC(=O)O)cc1Oc1ccc(NC(=O)c2cccnc2)cc1CSCC(F)(F)F` [Compound 70, {4-methoxy-3-[4-[(pyridine-3-carbonyl)-amino]-2-(2,2,2-trifluoro-ethylsulfanylmethyl)-phenoxy]-phenyl}-acetic acid], the IC50 is 300 to 1000 nM on human DP1 receptor and less than 300 nM at human DP2 receptor.

As for `COc1ccc(CC(=O)O)cc1Oc1ccc(NC(=O)c2ccncc2)cc1CSCC(F)(F)F` [Compound 71, {4-methoxy-3-[4-[(pyridine-4-carbonyl)-amino]-2-(2,2,2-trifluoro-ethylsulfanylmethyl)-phenoxy]-phenyl}-acetic acid], the figures for the IC50 at human DP1 receptor and at human DP2 receptor were 300 to 1000 nM and less than 300 nM, respectively.

For `COc1ccc(CC(=O)O)cc1Oc1ccc(NC(=O)C(C)(C)C)cc1C[S+]([O-])C(C)(C)C` (stereo not shown) [Compound 73, {3-[4-(2,2-Dimethyl-propionylamino)-2-(2-methyl-propane-2-sulfinylmethyl)-phenoxy]-4-methoxy-phenyl}-acetic acid], the IC50 on human DP1 receptor and on human DP2 receptor was less than 300 nM in each case.

Turning to `COc1ccc(CC(=O)O)cc1Oc1ccc(NC(=O)C(C)(C)C)cc1CS(=O)(=O)C(C)(C)C` [Compound 74, {3-[4-(2,2-Dimethyl-propionylamino)-2-(2-methyl-propane-2-sulfonylmethyl)-phenoxy]-4-methoxy-phenyl}-acetic acid], the IC50 at human DP1 receptor and at human DP2 receptor was less than 300 nM each time.

Consider `CC(C)(C)SCc1cc(NC(=O)C(C)(C)C)ccc1Oc1cc(CC(=O)O)ccc1O` [Compound 75, {3-[2-tert-Butylsulfanylmethyl-4-(2,2-dimethyl-propionylamino)-phenoxy]-4-hydroxy-phenyl}-acetic acid], for which the IC50 at human DP1 receptor and at human DP2 receptor was less than 300 nM throughout.

For `CC(C)(C)C(=O)Nc1ccc(Oc2cc(CC(=O)O)ccc2O)c(C[S+]([O-])C(C)(C)C)c1` (stereo not shown) [Compound 76, {3-[4-(2,2-Dimethyl-propionylamino)-2-(2-methyl-propane-2-sulfinylmethyl)-phenoxy]-4-hydroxy-phenyl}-acetic acid], the IC50 at human DP1 receptor and on human DP2 receptor was less than 300 nM in each case.

On to `COc1ccc(CC(=O)O[C@@H]2O[C@@H](C(=O)O)[C@H](O)[C@@H](O)[C@@H]2O)cc1Oc1ccc(NC(=O)C(C)(C)C)cc1CSC(C)(C)C` [Compound 77, (2R,3R,4R,5S,6S)-6-(2-{3-[2-tert-Butylsulfanylmethyl-4-(2,2-dimethyl-propionylamino)-phenoxy]-4-methoxy-phenyl}-acetoxy)-3,4,5-trihydroxy-tetrahydro-pyran-2-carboxylic acid], for which the IC50 at human DP1 receptor and at human DP2 receptor was less than 300 nM throughout.

As to `O=C(O)CCn1c2c(c3ccccc31)C[C@H](NS(=O)(=O)c1ccc(F)cc1)CC2` [Ramatroban, reference compound], the IC50 on human DP1 receptor was greater than 1000 nM; at human DP2 receptor it was 300 to 1000 nM.
